Source: article PMC8115122, “Development of Fluorescent and Biotin Probes Targeting NLRP3” (Frontiers in Chemistry, 2021)
pKd: −log10 of the molar value.

What was measured:
[1] = test system: AIM2-dependent cell death; experiment: LDH release (pyroptosis) after LPS and poly(dA:dT), AIM2-dependent; assay type: cell-based, murine; conditions: LPS + poly(dA:dT)
Description: […]. All data are means ± SEM (n = 3), Student's t-test. *P ≤ 0.05, **P ≤ 0.01, ***P ≤ 0.001.
To assess pyroptosis, cytosolic lactate dehydrogenase (LDH) release was measured as a marker of cell lysis. […] […]. All assays were performed according to the manufacturer's instructions. A two-tailed unpaired t-test was performed using GraphPad Prism 9.

AIM2 inflammasome = experiment: IL-1β release (HTRF) after LPS priming and poly(dA:dT) transfection, AIM2 inflammasome; conditions: poly(dA:dT)
Description: The following experiments were performed with probes 1–4 in immortalized murine bone marrow-derived macrophages. […] For this purpose, AIM2 was stimulated by transfection with poly(deoxyadenylic-deoxythymidylic) acid [poly(dA:dT)] after pretreatment with LPS. A Homogeneous Time Resolved Fluorescence (HTRF) assay was employed to determine the release of IL-1β (Figure 5).

[2] = test system: immortalized murine bone marrow-derived macrophages; experiment: CellTiter-Blue cell viability assay; assay type: cell-based; conditions: 4 h in Opti-MEM, tested 625 nM to 40 μM
Description: Next, the probes were examined in cell culture experiments. First, we determined the cytotoxicity of probes 1–4 at different concentrations between 625 nM and 40 μM in immortalized murine bone marrow-derived macrophages (Figure 4).
Figure 4 Cell viability of immortalized murine bone marrow-derived macrophages after treatment with probes 1–4. Cells were treated with the probes at different concentrations in Opti-MEM for 4 h. Cell viability was assessed using the CellTiter-Blue cell viability assay.
NLRP3 KO immortalized murine bone marrow-derived macrophages overexpressing mouse NLRP3-FLAG and human ASC-mCerulean were seeded in 96 well plates and incubated overnight. Cells were treated with the fluorescent probes (1 and 2) and the biotin-tagged probes (3 and 4) at different concentrations in Opti-MEM for 4 h. Subsequently, cell viability was assessed using CellTiter-Blue® cell viability assay according to the manufacturer's instructions.

[3] = test system: NLRP3-dependent cell death; experiment: LDH release (pyroptosis) after LPS and nigericin, NLRP3-dependent; assay type: cell-based, murine; conditions: LPS + nigericin
Description: NLRP3 KO Immortalized murine bone marrow-derived macrophages overexpressing mouse NLRP3-Flag and human ASC-mCerulean were seeded in 96-well plates and incubated for 16 h. Cells were treated with 400 ng/mL ultrapure LPS for 3 h. […] Subsequently, to induce NLRP3 inflammasome activation, cells were treated with 10 μM nigericin for 1.5 h. […] Supernatants were collected to measure cytosolic LDH release by an LDH assay and IL-1ß release by Homogeneous Time Resolved Fluorescence (HTRF). All assays were performed according to the manufacturer's instructions. A two-tailed unpaired t-test was performed using GraphPad Prism 9.

[4] = molecular target: human NLRP3-PYD-NACHT domain protein (Homo sapiens, UniProt Q96P20); experiment: SPR single-cycle kinetic binding to immobilized biotinylated NLRP3-PYD-NACHT; conditions: for kd, first-order off-rate constant for dissociation: SPR, 25 °C, 1:1 binding model; for kon: read-out: ka, second-order on-rate constant for association
Description: HEK293T cells were transiently co-transfected with human avi-FLAG-His10-NLRP3-PYD-NACHT domain (pIRES puro 3 vector) and BirA (pcDNA3.1 vector) for in-cell biotinylation at the lysine amino group of the Avi-tag. […] Eluted protein was stored snap frozen in liquid nitrogen, aliquoted, and stored at −80 °C.
(§1) SPR experiments were performed using a Biacore 8K instrument (GE Healthcare). The flow system was cleaned using the maintenance “Desorb” function (Desorb Kit, GE Healthcare). […] Biotinylated NLRP3-PYD-NACHT protein (2 μL/min, 900 s) was immobilized on the sensor chip flow cell 2. The flow system was washed using 50% isopropanol in 1 M NaCl and 50 mM NaOH. Free streptavidin binding sites were blocked by four consecutive 2-min injections (1,000 nM, 10 μL/min) of Biotin-PEG (Mn = 2,300 Da) (Sigma Aldrich). […] Data were collected at a rate of 10 Hz. The binding data were double referenced by blank cycle and reference flow cell subtraction. Data were corrected by a 4-point solvent correction. For kinetic binding experiments, processed data were fitted to a 1:1 interaction model using the Biacore Insight Evaluation Software (version 3.0.12.15655).

NLRP3 inflammasome = experiment: IL-1β release (HTRF) after LPS priming and nigericin, NLRP3 inflammasome; assay type: cell-based, murine; conditions: for effect on cytokine (IL-1β) release: 20 μM
Description: The following experiments were performed with probes 1–4 in immortalized murine bone marrow-derived macrophages. Nigericin, an antibiotic carboxylate ionophore, was used as the activator of the NLRP3 inflammasome, owing to its ability to induce a potassium efflux. […] For this purpose, AIM2 was stimulated by transfection with poly(deoxyadenylic-deoxythymidylic) acid [poly(dA:dT)] after pretreatment with LPS. A Homogeneous Time Resolved Fluorescence (HTRF) assay was employed to determine the release of IL-1β (Figure 5).
All data are means ± SEM (n = 3), Student's t-test. *P ≤ 0.05, **P ≤ 0.01, ***P ≤ 0.001.
NLRP3 KO Immortalized murine bone marrow-derived macrophages overexpressing mouse NLRP3-Flag and human ASC-mCerulean were seeded in 96-well plates and incubated for 16 h. Cells were treated with 400 ng/mL ultrapure LPS for 3 h. […] Subsequently, to induce NLRP3 inflammasome activation, cells were treated with 10 μM nigericin for 1.5 h. As controls, to activate the AIM2 inflammasome, cells were transfected with 200 ng of poly(dA:dT) using 0.5 μL lipofectamine 2,000 per well for 4 h. Supernatants were collected to measure cytosolic LDH release by an LDH assay and IL-1ß release by Homogeneous Time Resolved Fluorescence (HTRF). All assays were performed according to the manufacturer's instructions. A two-tailed unpaired t-test was performed using GraphPad Prism 9.

human NLRP3-PYD-NACHT = human NLRP3-PYD-NACHT (Homo sapiens, UniProt Q96P20); experiment: SPR competition mode (second ligand injected 120 s after the first); conditions: competition with CRID3/MCC950, equimolar, 10-times the kinetic KD of the test compound, either order of injection
Description: as §1

[5] = concentrations of Figure 5 (not given)

human NLRP3-PYD-NACHT domain protein, sequence (Q96P20 1-649 limits assumed): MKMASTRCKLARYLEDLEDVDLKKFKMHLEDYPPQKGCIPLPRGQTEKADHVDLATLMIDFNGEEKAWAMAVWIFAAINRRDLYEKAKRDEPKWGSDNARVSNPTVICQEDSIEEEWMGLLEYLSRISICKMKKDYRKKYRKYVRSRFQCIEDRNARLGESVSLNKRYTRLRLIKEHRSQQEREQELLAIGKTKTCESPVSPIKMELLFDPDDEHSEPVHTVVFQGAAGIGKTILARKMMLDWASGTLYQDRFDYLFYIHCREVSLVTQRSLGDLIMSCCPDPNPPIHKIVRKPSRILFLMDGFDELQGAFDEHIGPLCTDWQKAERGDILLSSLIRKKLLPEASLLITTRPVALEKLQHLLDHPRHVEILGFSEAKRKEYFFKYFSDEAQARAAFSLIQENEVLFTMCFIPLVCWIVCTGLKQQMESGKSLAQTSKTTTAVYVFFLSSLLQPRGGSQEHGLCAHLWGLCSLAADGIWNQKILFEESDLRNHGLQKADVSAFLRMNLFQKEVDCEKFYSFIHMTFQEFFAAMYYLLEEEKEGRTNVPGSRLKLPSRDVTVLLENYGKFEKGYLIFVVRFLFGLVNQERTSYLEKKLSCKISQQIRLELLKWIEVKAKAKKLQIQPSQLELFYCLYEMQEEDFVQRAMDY
human NLRP3-PYD-NACHT, sequence (Q96P20 1-649 limits assumed): as above

Structure (SMILES)	AIM2-dependent cell death (LDH release) ([1]; 2.5 μM)	AIM2-dependent IL-1β release (AIM2 inflammasome; [5])	AIM2-dependent cell death (LDH release) ([1]; 10 μM)	non-toxic up to concentration [2]	NLRP3-dependent cell death (LDH release) ([3]; 10 μM)	pKd [4]	kd, first-order off-rate constant for dissociation [4] [s⁻¹]	kon [4] [M⁻¹ s⁻¹]	inhibition of IL-1β release (NLRP3 inflammasome; 10 μM)	effect on cytokine (IL-1β) release (NLRP3 inflammasome)	response change indicative of a second binding site (human NLRP3-PYD-NACHT)	AIM2-dependent IL-1β release (AIM2 inflammasome; 2.5 μM)	AIM2-dependent IL-1β release (AIM2 inflammasome; 20 μM, data not shown, attributed to cytotoxicity)	some cytotoxicity at concentrations higher than [2]	NLRP3-dependent cell death (LDH release) ([3]; 2.5 μM)	inhibition of IL-1β release (NLRP3 inflammasome; 2.5 μM)	melting point [°C]
CC(C)(O)c1coc(S(=O)(=O)NC(=O)Nc2c3c(cc4c2CCC4)CCC3)c1 [CRID3/MCC950, reference compound]	but not the AIM2-dependent cell death	did not affect this process	–	–	–	–	–	–	–	–	–	–	–	–	–	–	–
O=C(COCCOCCNC(=O)c1cc2cc3c4c(c2oc1=O)CCCN4CCC3)NCc1ccc(S(=O)(=O)NC(=O)Nc2c3c(cc4c2CCC4)CCC3)cc1 [Compound 1, N-(2-(2-(2-([4-(N-([1,2,3,5,6,7-Hexahydro-s-indacen-4-yl]carbamoyl)sulfamoyl)benzyl]amino)-2-oxoethoxy)ethoxy)ethyl)-11-oxo-2,3,6,7-tetrahydro-1H,5H,11H-pyrano[2,3-f]pyrido[3,2,1-ij]quinoline-10-carboxamide]	–	did not affect this process	but not the AIM2-dependent cell death	up to 10 μM	prevented	6.09	0.01	13000	complete inhibition	–	–	–	–	–	–	–	–
O=C(CCCCC1SCC2NC(=O)NC21)NCc1ccc(S(=O)(=O)NC(=O)Nc2c3c(cc4c2CCC4)CCC3)cc1 (centres unmarked) [Compound 4]	–	–	–	up to 40 μM	–	6.21	0.0088	14000	–	did not significantly affect the cytokine release	No significant response change	–	–	–	–	–	–
O=C(Nc1c2c(cc3c1CCC3)CCC2)NS(=O)(=O)c1ccc(CNC(=O)c2cc3cc4c5c(c3oc2=O)CCCN5CCC4)cc1 [Compound 2]	but not the AIM2-dependent cell death	–	–	–	–	6.49	0.0033	10000	–	–	No significant response change	only a slightly reduced AIM2-dependent release of IL-1β	reduced AIM2-dependent IL-1β release	higher than 2.5 μM	prevented	complete inhibition	–
O=C(CCCC[C@H]1SC[C@H]2NC(=O)N[C@H]21)NCCOCCOCC(=O)NCc1ccc(S(=O)(=O)NC(=O)Nc2c3c(cc4c2CCC4)CCC3)cc1 [Compound 3, N-(2-(2-(2-([4-(N-([1,2,3,5,6,7-Hexahydro-s-indacen-4-yl]carbamoyl)sulfamoyl)benzyl]amino)-2-oxoethoxy)ethoxy)ethyl)-5-([3aR,4R,6aS]-2-oxohexahydro-1H-thieno[3,4-d]imidazol-4-yl)pentanamide]	–	–	–	up to 40 μM	–	5.99	0.022	22000	–	did not significantly affect the cytokine release	–	–	–	–	–	–	140 to 142
